By fraction unbound is commonly meant the share of the substance not bound to proteins or other matrix. A lower fraction unbound goes with little free substance. By bioavailability is commonly meant the share of a dose that reaches the circulation, judged against a reference dose that is usually intravenous. For orientation: clearance means a measure of how efficiently the substance is removed, as volume per time.

Data set [1] concerns elderly subjects with TRD. It counts as in vivo, human. Particulars: each dosing day. From the text:
The Modified Observer's Assessment of Alertness/Sedation (MOAA/S) was used to measure treatment-emergent sedation with correlation to levels of sedation defined by the American Society of Anesthesiologists (ASA) continuum. The MOAA/S scores range from 0 (No response to painful stimulus; corresponds to ASA continuum for general anesthesia) to 5 (Readily responds to name spoken in normal tone [awake]; corresponds to ASA continuum for minimal sedation). The proportion of subjects with sedation was <4% for the esketamine group for each dosing day.

For data set [2] the following is noted: single dose; 72 mg. On the procedure: This study includes a single dose and 14-day repeated dose neurotoxicity studies with intranasally administered esketamine in female rats 12 to 14 weeks of age. These studies were conducted to investigate whether single or repeated intranasal administrations of esketamine induced neurodegenerative changes in the rat brain. The study results were used to estimate an esketamine exposure-based safety margin compared with the maximum dose of esketamine administered intranasally to depressed adult patients in clinical trials.
The vehicle- and the 36 and 54 mg-dosed groups consisted of 24 animals per group, while the 72 mg-dosed and positive control groups involved 30 animals per group. Four satellite animals were added to the esketamine HCl-dosed groups of main study animals for toxicokinetic (TK) purposes. In these animals the plasma exposure to esketamine was measured on the day of dosing at various time points up to and including 24 hours after the first instillation.

Data set [3] has as its system patients with TRD. The experiment in a line: Dissociation by CADSS in SPRAVATO clinical trials (label). It counts as in vivo, human. From the text: The most common psychological effects of SPRAVATO were dissociative or perceptual changes (including distortion of time, space and illusions), derealization and depersonalization (61% to 75% of SPRAVATO-treated patients developed dissociative or perceptual changes based on the Clinician Administered Dissociative Symptoms Scale) [see Adverse Reactions (6.1)]. Given its potential to induce dissociative effects, carefully assess patients with psychosis before administering SPRAVATO; treatment should be initiated only if the benefit outweighs the risk.
SPRAVATO can cause dissociative symptoms (including derealization and depersonalization) and perceptual changes (including distortion of time and space, and illusions). In clinical trials, dissociation was transient and occurred on the day of dosing. Dissociation was evaluated by adverse event reports and the Clinician-Administered Dissociative States Scale (CADSS) questionnaire. A CADSS total score of more than 4 indicates presence of dissociative symptoms, and such an increase to a score of 4 or more occurred in a higher number of patients on esketamine compared to placebo during the short-term trials (see Table 5).

The test system of data set [4] is patients with TRD. In words: Adverse reactions in SPRAVATO clinical trials (label). It counts as in vivo, human. Particulars: up to 4 weeks after cessation of treatment. On the procedure: SPRAVATO was evaluated for safety in 1709 patients diagnosed with treatment resistant depression (TRD) [see Clinical Studies (14.1, 14.2)] from five Phase 3 studies (3 short-term and 2 long-term studies) and one Phase 2 dose-ranging study. Of all SPRAVATO-treated patients in the completed Phase 3 studies, 479 (30%) received at least 6 months of treatment, and 178 (11%) received at least 12 months of treatment.
In short-term studies in adults<65 years old (Study 1 pooled with another 4-week study), the proportion of patients who discontinued treatment because of an adverse reaction was 4.6% in patients who received SPRAVATO plus oral AD compared to 1.4% for patients who received placebo nasal spray plus oral AD. For adults 65 years old, the proportions were 5.6% and 3.1%, respectively. In Study 2, a long-term maintenance study, the discontinuation rates because of an adverse reaction were similar for patients receiving SPRAVATO plus oral AD and placebo nasal spray plus oral AD in the maintenance phase, at 2.6% and 2.1%, respectively.
SPRAVATO can cause nausea and vomiting (Table 7). Most of these events occurred on the day of dosing and resolved the same day, with the median duration not exceeding 1 hour in most subjects across dosing sessions. […]

Data set [5] relates to healthy subjects. The experiment in a line: Cardiac electrophysiology (QTc) study. Type of data set: in vivo, human. On the procedure: The effect of SPRAVATO (84 mg nasal spray and 0.8 mg/kg esketamine intravenously infused over 40 minutes) on the QTc interval was evaluated in a randomized, double-blind, placebo-, and positive-controlled (moxifloxacin 400 mg), 4-period, crossover study in 60 healthy subjects.

Data set [6] in a line: Protein binding. It counts as in vitro ADME. From the text: Protein binding of esketamine was approximately 43% to 45%.
Data set [7] concerns rat. The experiment in a line: 2-year rat carcinogenicity study. Type of data set: in vivo. The following applies: once-daily intranasal 4.5, 15 and 45 mg/kg/day; 2 years.
The subject of data set [8] is transgenic (Tg.rasH2) mice. The experiment in a line: 6-month study in transgenic (Tg.rasH2) mice. Type of data set: in vivo, mouse. The following applies: once-daily subcutaneous up to 75 mg/kg/day (reduced to 40 mg/kg/day during week 17); 6 months.
In data set [9] the test system is adult female rats. Particulars: single intranasal dose; 200-gram rat.
Data set [10] concerns glutamate NMDA receptor. Particulars: cited from earlier work.
Data set [11] can be described thus: Screening in vitro micronucleus test. Particulars: in the presence of metabolic activation.
Data set [12] in a line: Clinical pharmacokinetics of esketamine (label).
The mark [13] stands for this setting: human, plasma, other: nasal spray.

With `CN[C@]1(c2ccccc2Cl)CCCCC1=O` [esketamine, (S)-2-(2-chlorophenyl)-2-(methylamino)cyclohexanone], the “Proportion of subjects with sedation (post dose MOAA/S score of ≤3)” value in [1] was below 4%. In addition, in data set [2], the “AUC-based safety margin compared with the maximum 84 mg clinical dose” value is listed as around 86 fold and the “Cmax-based safety margin compared with the maximum 84 mg clinical dose” value is recorded as “approximately 60 fold”. Moreover, in [3] (across studies), the “Incidence of dissociation reported as severe in intensity” value is “less than 4%”. Moreover, the “Dissociation symptoms typically resolved by” value in [3] (after dosing) is at most 1.5 h. The Withdrawal symptoms result in [4] is listed as “no withdrawal symptoms”. The “Increase in heart rate” value in [5] (84 mg nasal spray and 0.8 mg/kg intravenously over 40 minutes) is listed as above 10 bpm. Further, the QTc prolongation entry in [5] (therapeutic dose) is listed as “lack of clinically relevant QTc prolongation”. In data set [6], this compound returned a fraction unbound of 0.55 to 0.57. Moreover, the Incidence of tumors result in [7] was “did not increase the incidence of tumors”. Also, the Incidence of tumors entry in data set [8] is reported as “did not increase the incidence of tumors”. In addition, in [9], the “Highest dose equivalent with no findings of neuronal vacuolation in the brain” value is given as 45 mg/kg. Besides, the “Affinity for the glutamate NMDA receptor in vitro, fold greater than R-ketamine” value in [10] was 3 to 4 fold. For the same compound, the Genotoxicity result in data set [11] is on record as “Genotoxic effects”. The “Time to reach maximum plasma concentration” value in data set [12] (after the last nasal spray of a treatment session) lay in the range of 20 to 40 min. For the same compound, the “Presence in human milk” value in data set [12] (human, in vivo) is “present in human milk”. Also, the bioavailability in data set [12] (human, plasma, inhaled or intranasal) was around 48%. This compound also had a clearance in data set [12] (human, plasma, iv) of around 1480 mL/min. Also, in data set [12] (setting [13]), the “Inter-subject variability, AUC∞” value was 18% to 45; the “Inter-subject variability, Cmax” value is given as 27% to 66; the “Intra-subject variability, AUC∞” value is reported as around 10%; the “Intra-subject variability, Cmax” value was “approximately 15%”. Further, in data set [12] (nasal), the “Dose excreted as unchanged drug in urine” value is “Less than 1%”. Also, in data set [12] (twice a week administration), the Accumulation in plasma entry is on record as “No accumulation”.

The values are drawn from US11980596B2 (priority 2017, dated 2024).
